Measured values: patent US9150553B2, “Carboxamide compounds and their use as calpain inhibitors” (AbbVie Deutschland GmbH & Co. KG, priority 2007, dated 2015)

Biological target: T1, calpain-I isolated from human erythrocytes (Homo sapiens, UniProt P07384)
T1 construct: calpain-I—isolated from human erythrocytes; purchased Calbiochem 208713; host or cells: human erythrocytes (native tissue isolate)
T1 sequence (P07384 1-714): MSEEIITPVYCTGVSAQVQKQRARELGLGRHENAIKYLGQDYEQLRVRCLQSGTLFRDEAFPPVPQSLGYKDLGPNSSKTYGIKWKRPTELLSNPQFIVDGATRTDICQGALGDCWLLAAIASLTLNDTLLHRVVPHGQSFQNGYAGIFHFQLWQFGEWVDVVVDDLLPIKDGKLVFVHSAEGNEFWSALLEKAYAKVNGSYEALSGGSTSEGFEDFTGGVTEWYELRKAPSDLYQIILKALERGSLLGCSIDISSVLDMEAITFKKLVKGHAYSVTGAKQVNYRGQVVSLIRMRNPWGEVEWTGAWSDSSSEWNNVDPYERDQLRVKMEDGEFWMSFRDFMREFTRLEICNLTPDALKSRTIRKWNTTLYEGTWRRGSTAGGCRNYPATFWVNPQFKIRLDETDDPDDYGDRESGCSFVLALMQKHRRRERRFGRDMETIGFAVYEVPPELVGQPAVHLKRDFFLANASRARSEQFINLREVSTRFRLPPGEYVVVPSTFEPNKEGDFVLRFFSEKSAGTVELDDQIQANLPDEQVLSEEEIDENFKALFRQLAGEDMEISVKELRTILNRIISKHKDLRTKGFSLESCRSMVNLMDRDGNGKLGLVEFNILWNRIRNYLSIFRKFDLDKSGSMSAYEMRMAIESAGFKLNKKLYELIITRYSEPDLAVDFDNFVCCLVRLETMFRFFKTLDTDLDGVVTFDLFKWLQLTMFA
T1 sequence (P04632 1-268 partner): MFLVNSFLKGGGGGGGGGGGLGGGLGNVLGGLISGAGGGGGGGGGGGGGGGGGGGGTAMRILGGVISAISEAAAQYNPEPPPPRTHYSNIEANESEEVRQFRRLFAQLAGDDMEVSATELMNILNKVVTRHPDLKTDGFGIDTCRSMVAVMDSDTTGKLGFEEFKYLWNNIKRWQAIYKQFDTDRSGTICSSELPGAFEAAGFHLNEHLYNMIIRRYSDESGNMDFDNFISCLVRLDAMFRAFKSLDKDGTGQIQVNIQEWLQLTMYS
Assay: Calpain I enzyme inhibition, kinetic fluorescence assay
Format: biochemical
Conditions: apparent Ki from IC50 by Cheng-Prussoff; pH 7.3, room temperature
Experimental: The following solutions and buffers were employed: • HBS (for 40 ml): 800 μl 1M HEPES; 2.16 ml 100 mM KCl; 4.8 ml 1M NaCl; 3.59 ml 5% glucose; 60 μl 1M MgSO4; 400 μl 100 mM Na pyruvate, 28.19 ml water; pH 7.2-7.5. • lysis buffer (for 20 ml): 400 μl 1M Tris pH 8.2; 2.74 ml 1M NaCl; 520 μl 0.5M EDTA; 2 ml 10% triton X-100; 0.8 ml (=1:25) CompletePlus (1 tablet/2 ml H2O); 200 μl 100 mM Pefabloc; 13.34 ml water, pH 8.2. • TBST (10×) (for 1I): 100 mM Tris (12.1 g); 1.5M NaCl (87 g); 1% Tween 20 (10 g), adjusted to pH 8. I. Enzyme Inhibition In Vitro: • Testing for blockade of the corresponding enzymic activities was carried out by means of kinetic fluorescence assays (excitation 390 nm, emission 460 nm). • Apparent Ki values were calculated from the experimentally determined IC50 values by the Cheng-Prussoff relation assuming a reversible competitive enzyme inhibition. The Km values of the substrates used under the assay conditions indicated above were: 90 μM (Z-Phe-Arg-AMC, cathepsin B), 10 μM (Z-Gly-Pro-Arg-AMC, cathepsin K), 2 μM (Z-Phe-Arg-AMC, cathepsin L), and 30 μM (Z-Val-Val-Arg-AMC, cathepsin S). • The indicated Ki values are averages of the inhibition constants calculated on the basis of 2 to 4 independent dose-effect plots. • The following assays were used: • 1. Calpain I: • 20 nM calpain-I—isolated from human erythrocytes (Calbiochem #208713), 100 μM Suc-Leu-Tyr-AMC (Bachem #I-1355) as substrate in buffer with 62 mM imidazole, 0.3 mM CaCl2, 0.10% CHAPS, 0.05% BSA, 1 mM DTT at pH 7.3 and room temperature. • 2. Cathepsin B: • 0.25 nM cathepsin B—isolated from human liver (Calbiochem #219362), 100 μM Z-Phe-Arg-AMC (Bachem #I-1160) as substrate 50 mM MES, 2 mM EDTA, 0.05% Brij 35, 2.5 mM L-cysteine, pH 6.0, room temperature. • 3. Cathepsin K: • 3 nM cathepsin K—activated from recombinant human procathepsin K from E. coli (Calbiochem #342001), 10 μM Z-Gly-Pro-Arg-AMC (Biomol #P-142) as substrate in 50 mM MES, 2 mM EDTA, 0.05% Brij 35, 2.5 mM L-cysteine, pH 6.0, room temperature. • 4. Cathepsin L: • 1 nM cathepsin L—isolated from human liver (Calbiochem #219402), 2 μM Z-Phe-Arg-AMC (Bachem #I-1160) as substrate in 50 mM MES, 2 mM EDTA, 0.05% Brij 35, 2.5 mM L-cysteine, pH 6.0, room temperature. • 5. Cathepsin S: • 0.5 nM recombinant human cathepsin S from E. coli (Calbiochem #219343), 20 μM Z-Val-Val-Arg-AMC (Bachem #I-1540) as substrate in 50 mM MES, 2 mM EDTA, 0.05% Brij 35, 2.5 mM L-cysteine, pH 6.0, room temperature. • The results of the in vitro determination are indicated in Table 2. The following abbreviations are used in Table 2: • The “Calpain activity” column, ++ stands for a calpain Ki (Ki(calpain)) of ≦40 nM, + means: 40 nM<Ki(Calpain)≦100 nM, 0 means 100 nM<Ki(Calpain)≦1 μM, − means 1 μM<Ki(Calpain)≦10 μM, −− means Ki(Calpain)>10 μM. • The “Sel. cat. B” column indicates the Ki(cathepsin B)/Ki(calpain) ratio. In this connection, ++ means a Ki(cathepsin B)/Ki(calpain) ratio of ≧30 and + means≦10≦Ki(cathepsin B)/Ki(calpain)<30. • The “Sel. cat. K” column indicates the Ki(cathepsin K)/Ki(calpain) ratio. In this connection, ++ means a Ki(cathepsin K)/Ki(calpain) ratio of ≧30 and + means 10≦Ki(cathepsin K)/Ki(calpain)<30. • The “Sel. cat. L” column indicates the Ki(cathepsin L)/Ki(calpain) ratio. In this connection, ++ means a Ki(cathepsin L)/Ki(calpain) ratio of ≧50 and + means 30≦Ki(cathepsin L)/Ki(calpain)<50. • The “Sel. cat. S” column indicates the Ki(cathepsin S)/Ki(calpain) ratio. […]

With `NC(=O)C1(C(Cc2ccccc2)NC(=O)c2cccnc2-n2ccc(-c3cccc(C(F)(F)F)c3)n2)OCCO1` (stereo not shown) [Compound I-2, N-{1-[2-(Aminocarbonyl)-1,3-dioxolan-2-yl]-2-phenylethyl}-2-{3-[3-(trifluoromethyl)phenyl]-1H-pyrazol-1-yl}nicotinamide] the Ki was > 10 µM.
